Assay in all cases: NCI tumour cell line growth inhibition, 48 h
Assay [1] concerns HCT-116 colon.
In assay [2] the test system is SF-539 CNS.
Assay [3] deals with BT-549 breast.
In assay [4] the test system is CAKI-1 renal.
Assay [5] concerns NCI-H522 lung.
The test system of assay [6] is SF-295 CNS.
In assay [7] the test system is SW-620 colon.
For assay [8], the system named is NCI-H460 lung.
Assay [9] relates to COLO 205 colon.
Assay [10] concerns ACHN renal.

The structures appear in SMILES notation.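 These data come from cells grown in 96-well plates and exposed to compound for 48 hours at five concentrations. GI50 is the concentration that inhibits growth by half. TGI is the concentration that stops growth completely.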

For `CC(=O)C1=C(C)N(Cc2ccccc2)C2(O)C=CC(=O)C3=C(O)c4ccccc4C(=O)C312` (stereo not drawn), the GI50 is 1.99 µM in assay [1]; 2.91 µM in assay [2]; 5.88 µM in [3]; 2.47 µM in [4]; 7.3 µM in assay [5]; 12.5 µM in assay [6]. For the same compound, the GI50 in assay [7] was 2.24 µM; in assay [8], 7.24 µM; in assay [9], 2.38 µM. Also, the TGI in [1] is 3.86 µM; in assay [2], 7.09 µM; in [3] it was 19.6 µM; in assay [4], 6.37 µM; in [5], greater than 100 µM; in assay [6], 27.9 µM. Moreover, the TGI is 5.22 µM in [7], 41.3 µM in [8] and 5.04 µM in [9].

`CCN1CCN(c2ccc(NC(=O)Nc3nc4ccc(-c5ccccc5OC)cc4s3)cc2)CC1`: the GI50 in assay [1] is 1.58 µM; in [2], 1.6 µM; in [3], 1.88 µM; in assay [5], 1.75 µM; in assay [6] it was 1.68 µM; in assay [7], 1.94 µM. Besides, the figures for the GI50 in assay [8], in [10] and in assay [9] were 1.77 µM, 1.74 µM and 1.97 µM, respectively. Also, the TGI in [1] came to 3.01 µM; in assay [2] it was 3.03 µM; in assay [3] it was 3.73 µM; in [5], 3.5 µM; in assay [6], 3.09 µM; in [7], 3.55 µM. In addition, the TGI came out at 3.27 µM in assay [8], 3.11 µM in [10] and 3.85 µM in [9].

In the case of `CCCCCCC(=O)NC1=C(N2CC2)C(=O)C(NC(=O)CCCCCC)=C(N2CC2)C1=O`, the GI50 is 2.37 µM in assay [2]; 31.3 µM in assay [3]; 1.93 µM in [4]; 0.444 µM in assay [6]; 2.25 µM in assay [7]; 0.677 µM in assay [8]. Further, the GI50 in [10] was 2.76 µM. Further, the TGI in [2] is greater than 100 µM; in assay [3], greater than 100 µM; in assay [4], greater than 100 µM; in [6], 34 µM; in [7], greater than 100 µM; in [8] it was greater than 100 µM. This compound also yielded a TGI in [10] greater than 100 µM.

For the compound `C[C@@H]1CC[C@@H]2[C@@H]1[C@H](OC(=O)/C=C/C1CCCCC1)[C@]1(C3CCCCC3)C[C@@H](OC(=O)CO)[C@@]2(C)O1`, the GI50 in assay [1] is 13.5 µM; in assay [2], 14.3 µM; in [3] it was 0.0551 µM; in assay [4] it was 0.034 µM; in [5], 13.7 µM; in assay [6], 14.3 µM. In addition, the figures for the GI50 in assay [7], in [8] and in assay [9] were 15.5 µM, 14.6 µM and 15.4 µM, respectively. Further, the TGI is 26.6 µM in [1]; 27.9 µM in assay [2]; 5.7 µM in [3]; 14.8 µM in assay [4]; 27.1 µM in [5]; 26.7 µM in assay [6]. For the same compound, the TGI is 29.8 µM in assay [7], 30 µM in assay [8] and 30 µM in [9].

Take `Oc1c(C(Nc2ccccn2)c2ccccc2)ccc2cccnc12` (stereo not drawn): the TGI in assay [1] was 21.3 µM; in assay [2] it was 9.68 µM; in assay [3], greater than 93.4 µM; in assay [4] it was greater than 87.4 µM; in assay [5], 11.8 µM; in assay [6] it was greater than 30.3 µM. For the same compound, the TGI in assay [7] is greater than 100 µM; in assay [10], 29.1 µM; in [9], 65.9 µM.

For the compound `CCCCCCCCN(CCCCCCCC)CC(O)c1cc(-c2ccccc2)nc2ccc(OC)cc12` (stereo not drawn), the GI50 was 15.7 µM in assay [1]; 22.3 µM in assay [2]; 23.9 µM in assay [3]; 53.4 µM in assay [5]; greater than 100 µM in assay [6]; 16.5 µM in [7]. The GI50 is greater than 100 µM in [8], greater than 100 µM in assay [10] and 22.1 µM in assay [9]. Moreover, the TGI is 68.4 µM in assay [1]; 64.8 µM in assay [2]; 64 µM in [3]; greater than 100 µM in assay [5]; greater than 100 µM in assay [6]; greater than 100 µM in [7]. Further, the TGI in [8], in [10] and in assay [9] was greater than 100 µM throughout.

Consider `Nc1nc2cc(Cl)ccc2n1N`, for which the TGI in [1], in assay [2], in assay [3], in assay [4], in [5] and in assay [6] was greater than 100 µM in each case. In addition, the TGI in assay [7], in assay [10] and in assay [9] was greater than 100 µM in each case.

As for `CN(C(=O)C(C)(C)C)c1ccccc1I(=O)=O`, the GI50 was greater than 100 µM in assay [2]; greater than 100 µM in [3]; greater than 100 µM in assay [4]; 16.1 µM in assay [5]; greater than 100 µM in assay [6]; greater than 100 µM in assay [7]. Also, the GI50 in assay [8] was greater than 100 µM; in assay [10] it was greater than 100 µM; in assay [9], 60.7 µM. Further, the TGI was greater than 100 µM in assay [2]; greater than 100 µM in assay [3]; greater than 100 µM in assay [4]; 30 µM in assay [5]; greater than 100 µM in assay [6]; greater than 100 µM in assay [7]. The TGI in assay [8], in assay [10] and in [9] was greater than 100 µM each time.

Regarding `O=C(Nc1ccc(Cl)c(Cl)c1)c1ccc(NC2=C(Cl)C(=O)N(Cc3ccccc3)C2=O)cc1`, the GI50 in assay [1] was 1.94 µM; in assay [2] it was 16 µM; in assay [3], 3.29 µM; in [4] it was 3 µM; in assay [5], 13.1 µM; in assay [6], 13.6 µM. For the same compound, the results for the GI50 in assay [8] and in assay [9] were 9.32 µM and 20 µM, respectively. In addition, the TGI in assay [1] stood at 4.25 µM; in assay [2] it was 30.1 µM; in assay [3] it was 10.6 µM; in assay [4], 12.6 µM; in [5], 27.2 µM; in assay [6], 34.7 µM. In addition, the TGI turned out to be 22.8 µM in assay [8] and 66.6 µM in assay [9].
